The NIST ThermoML archive (doi:10.1016/j.fluid.2011.09.011)
± gives the expanded uncertainty stated by the source.

Conditions: 298.15 K; 101.33 kPa; Liquid; Vibrating tube method

Row | SMILES | mass density [kg/m3]
1 | CCCCn1cc[n+](C)c1.F[B-](F)(F)F [1-butyl-3-methylimidazolium tetrafluoroborate] | 1203.76 ± 7.9
2 | CCOS(=O)(=O)[O-].CCn1cc[n+](C)c1 [1-ethyl-3-methylimidazolium ethyl sulfate] | 1236.55 ± 8.3
